pKi: −log10 of the molar value.
Assays:
Rho kinase 2 (ROCK-II) = Rho kinase 2 (ROCK-II) (Homo sapiens, UniProt O75116); test: In vitro Rho kinase inhibitory activity assay (ADP-Glo), Rho kinase 2; format: biochemical; details: 10 μM ATP, 25° C., expressed as range of activity
Procedure, shortened: (§1)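 ADP-Glo luminescence assay at 25 °C in 40 mM Tris pH 7.5, 20 mM MgCl2, 0.1 mg/ml BSA, 50 μM DTT, with 2.5 μM myelin basic protein, 10 μM ATP and 1% DMSO. Compound and ROCK1 or ROCK2 were preincubated 30 min, then reacted 1 h. IC50 came from a sigmoidal fit; Ki via Cheng-Prusoff.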

Rho kinase 1 (ROCK-I) = Rho kinase 1 (ROCK-I) (Homo sapiens, UniProt Q13464); test: In vitro Rho kinase inhibitory activity assay (ADP-Glo), Rho kinase 1; format: biochemical; details: 10 μM ATP, 25° C., expressed as range of activity
Procedure, shortened: as §1

Sequence of Rho kinase 1 (ROCK-I) (Q13464 whole entry): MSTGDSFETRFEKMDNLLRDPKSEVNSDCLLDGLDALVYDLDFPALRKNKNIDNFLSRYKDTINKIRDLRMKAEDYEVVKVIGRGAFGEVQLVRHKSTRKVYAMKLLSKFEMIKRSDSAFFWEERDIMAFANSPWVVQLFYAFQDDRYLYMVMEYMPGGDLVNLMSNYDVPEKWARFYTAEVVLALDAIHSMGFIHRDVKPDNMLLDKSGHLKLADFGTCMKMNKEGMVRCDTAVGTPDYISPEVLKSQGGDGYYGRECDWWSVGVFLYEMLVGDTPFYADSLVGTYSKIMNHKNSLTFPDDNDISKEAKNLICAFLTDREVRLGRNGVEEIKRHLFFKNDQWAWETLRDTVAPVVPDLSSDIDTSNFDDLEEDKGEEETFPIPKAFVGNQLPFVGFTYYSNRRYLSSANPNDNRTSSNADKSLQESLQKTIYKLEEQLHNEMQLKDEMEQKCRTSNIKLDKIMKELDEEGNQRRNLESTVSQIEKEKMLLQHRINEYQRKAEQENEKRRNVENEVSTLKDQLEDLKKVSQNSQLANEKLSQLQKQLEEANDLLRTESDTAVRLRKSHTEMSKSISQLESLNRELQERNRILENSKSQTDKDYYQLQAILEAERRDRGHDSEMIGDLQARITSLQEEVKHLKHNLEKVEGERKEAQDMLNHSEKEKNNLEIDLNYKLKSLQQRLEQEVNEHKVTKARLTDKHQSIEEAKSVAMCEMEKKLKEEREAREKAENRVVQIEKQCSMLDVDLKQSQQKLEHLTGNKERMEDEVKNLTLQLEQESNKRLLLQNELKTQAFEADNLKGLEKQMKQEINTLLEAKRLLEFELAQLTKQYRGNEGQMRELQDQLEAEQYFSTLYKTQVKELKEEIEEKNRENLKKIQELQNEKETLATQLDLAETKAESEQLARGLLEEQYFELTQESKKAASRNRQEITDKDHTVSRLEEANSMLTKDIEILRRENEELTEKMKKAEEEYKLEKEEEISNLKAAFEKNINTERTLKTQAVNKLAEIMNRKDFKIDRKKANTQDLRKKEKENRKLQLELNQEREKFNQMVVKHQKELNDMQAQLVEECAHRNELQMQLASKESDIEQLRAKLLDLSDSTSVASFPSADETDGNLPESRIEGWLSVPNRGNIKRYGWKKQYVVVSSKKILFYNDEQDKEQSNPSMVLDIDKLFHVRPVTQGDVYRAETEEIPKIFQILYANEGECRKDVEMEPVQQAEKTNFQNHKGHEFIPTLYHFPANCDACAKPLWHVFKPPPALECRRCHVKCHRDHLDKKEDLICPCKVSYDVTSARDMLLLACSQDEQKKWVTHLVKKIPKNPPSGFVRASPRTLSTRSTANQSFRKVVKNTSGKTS
Sequence of Rho kinase 2 (ROCK-II) (O75116 whole entry): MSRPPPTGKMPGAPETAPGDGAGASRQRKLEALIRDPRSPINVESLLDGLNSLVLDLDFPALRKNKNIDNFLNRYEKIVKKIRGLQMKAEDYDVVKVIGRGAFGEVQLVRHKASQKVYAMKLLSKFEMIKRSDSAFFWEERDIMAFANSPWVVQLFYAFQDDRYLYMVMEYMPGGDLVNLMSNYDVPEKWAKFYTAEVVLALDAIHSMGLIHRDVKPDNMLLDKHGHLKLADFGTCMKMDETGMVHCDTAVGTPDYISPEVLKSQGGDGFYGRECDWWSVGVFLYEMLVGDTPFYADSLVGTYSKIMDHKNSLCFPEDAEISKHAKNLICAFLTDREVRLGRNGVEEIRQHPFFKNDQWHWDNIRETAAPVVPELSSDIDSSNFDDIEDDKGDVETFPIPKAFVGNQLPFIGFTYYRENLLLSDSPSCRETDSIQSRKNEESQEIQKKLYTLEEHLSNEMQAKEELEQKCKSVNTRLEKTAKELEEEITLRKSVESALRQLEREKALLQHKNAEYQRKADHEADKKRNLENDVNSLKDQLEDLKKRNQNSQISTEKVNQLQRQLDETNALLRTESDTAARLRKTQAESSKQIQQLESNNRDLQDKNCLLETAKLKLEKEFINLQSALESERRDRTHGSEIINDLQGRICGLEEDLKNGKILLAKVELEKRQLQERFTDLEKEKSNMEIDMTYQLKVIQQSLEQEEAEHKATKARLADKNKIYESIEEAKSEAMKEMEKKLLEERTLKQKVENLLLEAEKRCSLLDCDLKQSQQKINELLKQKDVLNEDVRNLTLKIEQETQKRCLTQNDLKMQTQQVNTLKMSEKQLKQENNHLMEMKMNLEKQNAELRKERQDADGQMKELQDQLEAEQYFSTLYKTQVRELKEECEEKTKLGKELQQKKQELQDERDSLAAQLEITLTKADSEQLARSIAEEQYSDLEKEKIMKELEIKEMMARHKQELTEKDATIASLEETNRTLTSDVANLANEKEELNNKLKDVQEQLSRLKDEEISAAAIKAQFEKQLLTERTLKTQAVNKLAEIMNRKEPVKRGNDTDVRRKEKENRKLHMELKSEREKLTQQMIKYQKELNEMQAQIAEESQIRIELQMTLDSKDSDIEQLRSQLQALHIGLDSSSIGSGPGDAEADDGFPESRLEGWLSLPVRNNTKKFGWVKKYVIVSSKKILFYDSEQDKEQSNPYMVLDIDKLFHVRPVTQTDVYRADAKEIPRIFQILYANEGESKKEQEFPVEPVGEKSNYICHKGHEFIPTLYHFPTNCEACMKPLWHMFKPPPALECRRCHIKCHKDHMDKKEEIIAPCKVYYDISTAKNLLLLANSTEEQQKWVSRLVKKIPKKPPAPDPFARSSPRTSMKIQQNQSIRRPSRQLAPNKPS

Row | Structure (SMILES) | pKi (Rho kinase 2 (ROCK-II)) | pKi (Rho kinase 1 (ROCK-I))
1 | Cc1c[nH]c2nccc(Oc3ccc(C[C@H](N)C(=O)N4C[C@@H]5C[C@H]4CN5Cc4ccccc4)cc3F)c12 [Example 24, (S)-2-amino-1-((1S,4S)-5-benzyl-2,5-diazabicyclo[2.2.1]heptan-2-yl)-3-(3-fluoro-4-((3-methyl-1H-pyrrolo[2,3-b]pyridin-4-yl)oxy)phenyl)propan-1-one] | > 8.52 | > 8.52
2 | Cc1c[nH]c2nccc(Oc3ccc(C[C@H](N)C(=O)N4C[C@@H]5C[C@H]4CN5C)cc3F)c12 [Example 25, (S)-2-amino-3-(3-fluoro-4-((3-methyl-1H-pyrrolo[2,3-b]pyridin-4-yl)oxy)phenyl)-1-((1S,4S)-5-methyl-2,5-diazabicyclo[2.2,1]heptan-2-yl)propan-1-one] | > 8.52 | > 8.52
3 | Cc1c[nH]c2nccc(Oc3ccc(C[C@H](N)C(=O)N4C[C@@H](C)N(Cc5ccccc5)[C@@H](C)C4)cc3F)c12 [Example 26, (S)-2-amino-1-((3S,5R)-4-benzyl-3,5-dimethylpiperazin-1-yl)-3-(3-fluoro-4-((3-methyl-1H-pyrrolo[2,3-b]pyridin-4-yl)oxy)phenyl)propan-1-one] | > 8.52 | > 8.52
4 | Cc1c[nH]c2nccc(Oc3ccc(C[C@H](N)C(=O)N4CCN(Cc5ccccn5)CC4)cc3F)c12 [Example 27, (S)-2-amino-3-(3-fluoro-4-((3-methyl-1H-pyrrolo[2,3-b]pyridin-4-yl)oxy)phenyl)-1-(4-(pyridin-2-ylmethyl)piperazin-1-yl)propan-1-one] | > 8.52 | > 8.52
5 | Cc1c[nH]c2nccc(Oc3ccc(C[C@H](N)C(=O)N4CCN(Cc5cccnc5)CC4)cc3F)c12 [Example 28, (S)-2-amino-3-(3-fluoro-4-((3-methyl-1H-pyrrolo[2,3-b]pyridin-4-yl)oxy)phenyl)-1-(4-(pyridin-3-ylmethyl)piperazin-1-yl)propan-1-one] | > 8.52 | > 8.52
6 | Cc1c[nH]c2nccc(Oc3ccc(C[C@H](N)C(=O)N4CC5(CNC5)C4)cc3F)c12 [Example 29, (S)-2-amino-3-(3-fluoro-4-((3-methyl-1H-pyrrolo[2,3-b]pyridin-4-yl)oxy)phenyl)-1-(2,6-diazaspiro[3.3]heptan-2-yl)propan-1-one] | > 8.52 | > 8.52
7 | Cc1c[nH]c2nccc(Oc3ccc(C[C@H](N)C(=O)N4C[C@H]5CN(C)C[C@H]5C4)cc3F)c12 [Example 30, (S)-2-amino-3-(3-fluoro-4-((3-methyl-1H-pyrrolo[2,3-b]pyridin-4-yl)oxy)phenyl)-1-((3aR,6aS)-5-methylhexahydropyrrolo[3,4-c]pyrrol-2(1H)-yl)propan-1-one] | > 8.52 | > 8.52
8 | Cc1c[nH]c2nccc(Oc3ccc(C[C@H](N)C(=O)N4C[C@H]5CNC[C@H]5C4)cc3F)c12 [Example 31, (S)-2-amino-3-(3-fluoro-4-((3-methyl-1H-pyrrolo[2,3-b]pyridin-4-yl)oxy)phenyl)-1-((3aR,6aS)-hexahydropyrrolo[3,4-c]pyrrol-2(1H)-yl)propan-1-one] | > 8.52 | > 8.52
9 | Cc1c[nH]c2nccc(Oc3ccc(C[C@H](N)C(=O)NC4(CO)CCCCC4)cc3F)c12 [Example 32, (S)-2-amino-3-(3-fluoro-4-((3-methyl-1H-pyrrolo[2,3-b]pyridin-4-yl)oxy)phenyl)-N-(1-(hydroxymethyl)cyclohexyl)propanamide] | > 8.52 | > 8.52
10 | Cc1c[nH]c2nccc(Oc3ccc(C[C@H](N)C(=O)NC4(CO)CCOCC4)cc3F)c12 [Example 33, (S)-2-amino-3-(3-fluoro-4-((3-methyl-1H-pyrrolo[2,3-b]pyridin-4-yl)oxy)phenyl)-N-(4-(hydroxymethyl)tetrahydro-2H-pyran-4-yl)propanamide] | > 8.52 | > 8.52
11 | Cc1c[nH]c2nccc(Oc3ccc(C[C@H](N)C(=O)NC4(C#N)CCCCC4)cc3F)c12 [Example 34, (S)-2-amino-N-(1-cyanocyclohexyl)-3-(3-fluoro-4-((3-methyl-1H-pyrrolo[2,3-b]pyridin-4-yl)oxy)phenyl)propanamide] | > 8.52 | > 8.52
12 | Cc1c[nH]c2nccc(Oc3ccc(C[C@H](N)C(=O)NC4(C(N)=O)CCCCC4)cc3F)c12 [Example 35, (S)-1-(2-amino-3-(3-fluoro-4-((3-methyl-1H-pyrrolo[2,3-b]pyridin-4-yl)oxy)phenyl)propanamido)cyclohexanecarboxamide] | > 8.52 | > 8.52
13 | Cc1c[nH]c2nccc(Oc3ccc(C[C@H](N)C(=O)NC4(CCO)CCCCC4)cc3F)c12 [Example 36, (S)-2-amino-3-(3-fluoro-4-((3-methyl-1H-pyrrolo[2,3-b]pyridin-4-yl)oxy)phenyl)-N-(1-(2-hydroxyethyl)cyclohexyl)propanamide] | > 8.52 | > 8.52
14 | Cc1c[nH]c2nccc(Oc3ccc(C[C@H](N)C(=O)NC4(CO)CCN(C)CC4)cc3F)c12 [Example 37, (S)-2-amino-3-(3-fluoro-4-((3-methyl-1H-pyrrolo[2,3-b]pyridin-4-yl)oxy)phenyl)-N-(4-(hydroxymethyl)-1-methylpiperidin-4-yl)propanamide] | > 8.52 | > 8.52
15 | Cc1c[nH]c2nccc(Oc3ccc(C[C@H](N)C(=O)NC4(CN(C)C)CCCCC4)cc3F)c12 [Example 38, (S)-2-amino-N-(1-((dimethylamino)methyl)cyclohexyl)-3-(3-fluoro-4-((3-methyl-1H-pyrrolo[2,3-b]pyridin-4-yl)oxy)phenyl)propanamide] | > 8.52 | > 8.52
16 | Cc1c[nH]c2nccc(Oc3ccc(C[C@H](N)C(=O)N(C)CC4CCN(C)CC4)cc3F)c12 [Example 39, (S)-2-amino-3-(3-fluoro-4-((3-methyl-1H-pyrrolo[2,3-b]pyridin-4-yl)oxy)phenyl)-N-methyl-N-((1-methylpiperidin-4-yl)methyl)propanamide] | 7.52 to 8.52 | 7.52 to 8.52
17 | Cc1c[nH]c2nccc(Oc3ccc(C[C@H](N)C(=O)NCC4CCN(C)CC4)cc3F)c12 [Example 40, (S)-2-amino-3-(3-fluoro-4-((3-methyl-1H-pyrrolo[2,3-b]pyridin-4-yl)oxy)phenyl)-N-((1-methylpiperidin-4-yl)methyl)propanamide] | > 8.52 | 7.52 to 8.52
18 | Cc1c[nH]c2nccc(Oc3ccc(C[C@H](N)C(=O)N4CC(N(C)C)C4)cc3F)c12 [Example 41, (S)-2-amino-1-(3-(dimethylamino)azetidin-1-yl)-3-(3-fluoro-4-((3-methyl-1H-pyrrolo[2,3-b]pyridin-4-yl)oxy)phenyl)propan-1-one] | > 8.52 | > 8.52
19 | Cc1c[nH]c2nccc(Oc3ccc(C[C@H](N)C(=O)NC4CN(C)C4)cc3F)c12 [Example 42, (S)-2-amino-3-(3-fluoro-4-((3-methyl-1H-pyrrolo[2,3-b]pyridin-4-yl)oxy)phenyl)-N-(1-methylazetidin-3-yl)propanamide] | > 8.52 | > 8.52
20 | Cc1c[nH]c2nccc(Oc3ccc(C[C@H](N)C(=O)N4CC[C@@H](N(C)C)C4)cc3F)c12 [Example 43, (S)-2-amino-1-((R)-3-(dimethylamino)pyrrolidin-1-yl)-3-(3-fluoro-4-((3-methyl-1H-pyrrolo[2,3-b]pyridin-4-yl)oxy)phenyl)propan-1-one] | > 8.52 | > 8.52
21 | Cc1c[nH]c2nccc(Oc3ccc(C[C@H](N)C(=O)N(C)C4CCN(C)CC4)cc3F)c12 [Example 44, (S)-2-amino-3-(3-fluoro-4-((3-methyl-1H-pyrrolo[2,3-b]pyridin-4-yl)oxy)phenyl)-N-methyl-N-(1-methylpiperidin-4-yl)propanamide] | > 8.52 | 7.52 to 8.52
22 | Cc1c[nH]c2nccc(Oc3ccc(C[C@H](N)C(=O)N4CCC(CN(C)C)CC4)cc3F)c12 [Example 45, (S)-2-amino-1-(4-((dimethylamino)methyl)piperidin-1-yl)-3-(3-fluoro-4-((3-methyl-1H-pyrrolo[2,3-b]pyridin-4-yl)oxy)phenyl)propan-1-one] | > 8.52 | > 8.52
23 | Cc1c[nH]c2nccc(Oc3ccc(C[C@H](N)C(=O)N[C@H]4CN5CCC4CC5)cc3F)c12 [Example 46, (S)-2-amino-3-(3-fluoro-4-((3-methyl-1H-pyrrolo[2,3-b]pyridin-4-yl)oxy)phenyl)-N-((R)-quinuclidin-3-yl)propanamide] | > 8.52 | > 8.52
24 | Cc1c[nH]c2nccc(Oc3ccc(C[C@H](N)C(=O)NCC4CN(C)C4)cc3F)c12 [Example 47, (S)-2-amino-3-(3-fluoro-4-((3-methyl-1H-pyrrolo[2,3-b]pyridin-4-yl)oxy)phenyl)-N-((1-methylazetidin-3-yl)methyl)propanamide] | > 8.52 | > 8.52
25 | Cc1c[nH]c2nccc(Oc3ccc(C[C@H](N)C(=O)N4CC(CN(C)C)C4)cc3F)c12 [Example 48, (S)-2-amino-1-(3-((dimethylamino)methyl)azetidin-1-yl)-3-(3-fluoro-4-((3-methyl-1H-pyrrolo[2,3-b]pyridin-4-yl)oxy)phenyl)propan-1-one] | > 8.52 | > 8.52
26 | Cc1c[nH]c2nccc(Oc3ccc(C[C@H](N)C(=O)N4CC[C@H](N(C)C)C4)cc3F)c12 [Example 49, (S)-2-amino-1-((S)-3-(dimethylamino)pyrrolidin-1-yl)-3-(3-fluoro-4-((3-methyl-1H-pyrrolo[2,3-b]pyridin-4-yl)oxy)phenyl)propan-1-one] | > 8.52 | > 8.52
27 | Cc1c[nH]c2nccc(Oc3ccc(C[C@H](N)C(=O)N4CCC[C@@H](N(C)C)C4)cc3F)c12 [Example 50, (S)-2-amino-1-((R)-3-(dimethylamino)piperidin-1-yl)-3-(3-fluoro-4-((3-methyl-1H-pyrrolo[2,3-b]pyridin-4-yl)oxy)phenyl)propan-1-one] | > 8.52 | > 8.52
